How the values were obtained:
[1] = Qualitative solubility testing of the test article in the test system; format: physicochemical; conditions: aqueous buffer; pH 7.4, potassium phosphate buffer, MgCl2, EDTA, human liver microsomes 0.0125 mg/mL; read-out: Soluble in the test system (visual comparison)
Procedure: Since stability of the test article solutions is not known, the stock solution and dilutions to working solutions are prepared fresh on the day of use.

[2] = cited from earlier work
[3] = cited from earlier work; for Efficacy in MDD trials: phase 2 / phase 2b trials in MDD
CYP2A6 = target: T1, CYP2A6 (Homo sapiens, UniProt P11509); assay: Inhibition of CYP2A6 coumarin 7-hydroxylation in human liver microsomes (direct, time- and metabolism-dependent); conditions: both, pH 7.4
T1 sequence (P11509 1-494): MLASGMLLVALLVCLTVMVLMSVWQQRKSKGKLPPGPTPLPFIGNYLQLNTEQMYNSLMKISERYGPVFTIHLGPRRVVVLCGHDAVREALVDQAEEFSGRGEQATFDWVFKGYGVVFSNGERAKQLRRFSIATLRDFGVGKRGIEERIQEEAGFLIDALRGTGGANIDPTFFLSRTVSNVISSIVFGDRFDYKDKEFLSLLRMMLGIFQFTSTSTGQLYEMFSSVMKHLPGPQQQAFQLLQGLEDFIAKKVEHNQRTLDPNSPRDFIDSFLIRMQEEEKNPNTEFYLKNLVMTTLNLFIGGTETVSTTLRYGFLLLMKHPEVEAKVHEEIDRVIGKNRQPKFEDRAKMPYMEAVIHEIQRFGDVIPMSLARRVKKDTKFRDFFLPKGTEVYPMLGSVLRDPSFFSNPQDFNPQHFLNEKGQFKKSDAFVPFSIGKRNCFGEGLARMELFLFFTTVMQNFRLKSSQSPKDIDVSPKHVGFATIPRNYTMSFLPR
Procedure: Known direct and metabolism-dependent inhibitors of CYP2A6 are included as positive controls.
Human liver microsomes from non-transplantable, donated livers are prepared and characterized at the testing facility as outlined by Pearce, R. et al., “Effects of Freezing, Thawing, and Storing Human Liver Microsomes on Cytochrome P450 Activity,” Archives of Biochemistry and Biophysics, 1996, 331 (2), 145-169 and Parkinson, A. et al., “The Effects of Gender, Age, Ethnicity and Liver Cirrhosis on Cytochrome P450 Enzyme Activity in Human Liver Microsomes and Inducibility in Cultured Human Hepatocytes,” Toxicology and Applied Pharmacology, 2004, 199 (3), 193-209. A mixed-gender pool of 200 individual human liver microsomal samples is used for this study (Sekisui XenoTech catalog number: H2610). The kinetic constants (S50 or Km) used to select marker substrate concentrations and incubation conditions are determined previously.
Incubation mixtures are prepared in bulk to obviate the need for directly pipetting very small volumes (i.e., 1 μL or less). The test article is dissolved in water and added directly to incubation mixtures.
A Tecan liquid handling system conducts all incubations. Duplicate aliquots of the buffer mixtures are automatically added to 96-well plates at the appropriate locations. […] The supernatant fractions are analyzed by liquid chromatography tandem mass spectrometry (LC-MS/MS). […]

[4] = cited from earlier work; for Help in smoking cessation: reported, nortriptyline as the sole pharmacotherapy

In the case of `Clc1ccc([C@]23CNC[C@H]2C3)cc1Cl` [Amitifadine, (1R,5S)-1-(3,4-dichlorophenyl)-3-azabicyclo[3.1.0]hexane], the solubility [1] is listed as at least 200 µM, the “Effect size in depression” value ([2]; depression) is listed as 0.6 and the Tolerability ([2]; given by mouth twice daily for up to 12 weeks) is listed as “good tolerability”.
In the case of `COC[C@@H]1[C@@H](c2ccc(Cl)c(Cl)c2)C[C@@H]2CC[C@H]1N2` [GSK-372475], the “Efficacy in MDD trials” value [3] is given as “failed”.
For `CN1Cc2cc(-c3ccc(N)nn3)ccc2[C@H](c2ccc3ccccc3c2)C1` [Liafensine], the “Efficacy in treatment resistant depression versus active comparators” value ([3]; two large phase 2b trials in TRD) is given as “no different from full-dose escitalopram (an SSRI) or duloxetine (an SNRI)”.
`CN1CCCC1c1cccnc1` (centres unmarked) [Nicotine] gave an inhibition at 5 min, 300 µM (CYP2A6) of 82.5%.
In the case of `N[C@@H]1CC[C@@H](c2ccc(Cl)c(Cl)c2)c2ccccc21` [SEP-225289], the “Efficacy in MDD trials” value [3] is given as “failed to differentiate versus the comparators”.
For `CNCCC=C1c2ccccc2CCc2ccccc21` [nortriptyline], the “Help in smoking cessation” value [4] is given as “increases long-term smoking cessation”.
In the case of `c1cnc2cc3c(cc2n1)[C@@H]1CNC[C@H]3C1` [varenicline], the “One year abstinence rate” value ([4]; smoking cessation) is listed as 23% and the 6-month abstinence rate ([4]; smoking cessation, placebo 10.6%) is listed as 27.6%.
For `COc1ccc(C(CN(C)C)C2(O)CCCCC2)cc1` (centres unmarked) [venlafaxine], the “Help in smoking cessation” value [4] is listed as “has not been shown to help”.
